Results published in patent US11878053B2, “Vaccine compositions comprising tryptophan 2,3-dioxygenase or fragments thereof” (IO Biotech ApS, priority 2014, dated 2024).

Experiments:
[1] = tested on: peripheral blood mononuclear cells (PBMC); assay: IFNγ ELISPOT assay with HLA-A2 restricted TDO peptides; type: cell-based, human; conditions: for TDO responses shown by ELISPOT vs control peptide, DFR method: 3*10^5 cells/well, control peptide HIVpol463-476, examples; for IFNγ producing T-cell in response to the peptide: PBMC from six cancer patients, after one round of in vitro stimulation; for ex vivo IFNγ ELISPOT response: directly ex vivo, PBMC from different cancer patients, 9*10^5 cells/well
T2 cells = assay: 51Cr-release cytotoxicity assay, peptide-pulsed T2 cells; type: cell-based; conditions: short peptides added immediately before the assay, long peptides loaded overnight
Experimental: Assessment of the cytotoxic capability of the generated T-cell lines was evaluated using a conventional chromium release assay as described. Briefly, target tumor cell lines were labeled with 100 μCi ^51Cr (Perkin Elmer, Skovlunde, Denmark) in 100 μl RPMI 1640 (Gibco) supplied with 10% FCS (Gibco) for one hour at 37° C. After washing of target cells, they were incubated with effector cells at different effector:target (E:T) ratios for four hours in the incubator. Subsequently, the amount of radioactivity in the supernatant was measured using a gamma cell counter (Perkin Elmer Wallac Wizard 1470 Automatic gamma counter).

CD4+ T cells in PBMC = assay: Cytokine ELISPOT (IFNγ, TNFα, IL-10, IL-17A) with long TDO peptides; type: cell-based, human; conditions: for Peptide-specific CD4 T-cell responses: ELISPOT, cancer patients and healthy donors; for IFNγ producing CD4+ T cells, cancer patients vs healthy donors: IFNγ ELISPOT; for IL-10 production in response to peptide stimulation: IL-10 ELISPOT; for IL-17 production in response to peptide stimulation: IL-17 ELISPOT; for cells producing TNFα in response to peptide, cancer patients vs healthy donors: TNFα ELISPOT
HLA-A2 = target: T1, HLA-A2 (Homo sapiens, UniProt P04439, D140Y/D185E/D98H/E176V/E277Q/G131W/G231S/I119V/I121R/I166T/I218V/N151K/N90K/P208A/P217A/Q86G/Q94H/R138H/R169H); conditions: positive control peptides, well described; cited from earlier work
T1 construct: made in house; host or cells: E. coli

[2] = tested on: TDO-specific CD8+ T cells; assay: Tetramer staining (flow cytometry) of TDO-specific CD8+ T cells; type: cell-based, human; conditions: PBMC from a cancer patient repeatedly stimulated with autologous DC loaded with the peptide (5- or 4-times)
Experimental: DC were generated by adherence of PBMCs to the plastic surface of a well for one hour in RPMI 1640 (Gibco) before removal of non-adherent cells. The adherent cells were treated with 1000 U/ml GM-CSF (PeproTech, London, UK) and 250 U/ml IL-4 (Peprotech) in X-vivo (Lonza, Copenhagen, Denmark) supplied with 5% human AB serum (Sigma-Aldrich) and placed in a 37° C., 5% CO2 and humidified environment. On day six, maturation cocktail consisting of 1000 U/ml of each TNFα, IL-1P and IL-6 and 1 μg/ml PGE2 (Peprotech) was added to the cells. On day eight, mature DCs were harvested, loaded with 100 μM TDO peptide in X-vivo 15 (Lonza) for four hours in the incubator. After washing, peptide-loaded DCs were mixed with autologous PBLs in X-vivo 15 (Lonza) supplied with 5% human AB serum (Sigma-Aldrich). […] Cultures were stimulated this way twice seven days apart. Further stimulations were performed using autologous, irradiated (25Gy) PBLs loaded with 100 μM TDO peptide. The day after stimulation with PBLs the cultures were supplied with IL-2 (Proleukin; Novartis, Copenhagen, Denmark) to a final concentration of 40 U/ml. Peptide loaded MHC tetramers were […] with 2.5 μl of each phycoerytrhin (PE). […] The stainings were performed in 50 μl PBS (Lonza) supplied with 2% FCS (Gibco) for 15 minutes in the incubator. […]

Sequence	TDO responses shown by ELISPOT vs control peptide, DFR method [1]	IFNγ producing T-cell in response to the peptide [1]	ex vivo IFNγ ELISPOT response [1]	lysis of T2 cells pulsed with the peptide by TDO123-132 specific cells (T2 cells)	Peptide-specific CD4 T-cell responses (CD4+ T cells in PBMC)	IFNγ producing CD4+ T cells, cancer patients vs healthy donors (CD4+ T cells in PBMC)	IL-10 production in response to peptide stimulation (CD4+ T cells in PBMC)	IL-17 production in response to peptide stimulation (CD4+ T cells in PBMC)	cells producing TNFα in response to peptide, cancer patients vs healthy donors (CD4+ T cells in PBMC)	affinity towards HLA-A2 (HLA-A2)	frequency of TDO-specific CD8+ T cells by two color tetramer staining [2]
TLLELVEAWL (Peptide fragment of human TDO) [TDO200-208, Polypeptide fragment of human TDO]	statistically significant	presence of IFNγ producing T-cell	detectable directly ex vivo	–	–	–	–	–	–	–	–
RFQVPFQLLTSLMDIDSLMT (Peptide fragment of human TDO) [TDO303-322, long (20 amino acids) peptide comprising TDO309-317]	–	–	–	not	present in both cancer patients and healthy donors	no difference	restricted to cancer patients	restricted to cancer patients	more frequent in healthy donors	–	–
ILKEPVHGV [HIVpol468-476]	–	–	–	–	–	–	–	–	–	high affinity	–
KLLVQQFSIL (Peptide fragment of human TDO) [TDO123-132, Polypeptide fragment of human TDO]	statistically significant	presence of IFNγ producing T-cell	detectable directly ex vivo	lysed	–	–	–	–	–	–	dramatically increased
DLFNLSTYL (Peptide fragment of human TDO) [TDO364-372, Polypeptide fragment of human TDO]	statistically significant	presence of IFNγ producing T-cell	–	–	–	–	–	–	–	–	–
QLLTSLMDI (Peptide fragment of human TDO) [TDO309-317, Polypeptide fragment of human TDO]	statistically significant	presence of IFNγ producing T-cell	detectable directly ex vivo	not	–	–	–	–	–	–	dramatically increased
VSVILKLLVQQFSILETMTA (Peptide fragment of human TDO) [TDO118-137, long (20 amino acids) peptide comprising TDO123-132]	–	–	–	lysed	present in both cancer patients and healthy donors	no difference	restricted to cancer patients	restricted to cancer patients	more frequent in healthy donors	–	–
